≈ marks a conversion by molar mass, not a printed value. Blank lines part the entries; values can stand above or below the molecule they belong to. Calls of active or inactive are those of the source. No cut-off for these calls is given here.
Tests used:
Staphylococcus aureus [1] = assay: Antibacterial activity against Staphylococcus aureus SA-1199B; type: functional
[2] = biological target: T1, Quinolone resistance protein NorA (Staphylococcus aureus) (UniProt P0A0J7); assay: Inhibition of NorA in staphylococcus aureus SA-1199B assessed as increase in fluorescence emission of ethidium bromide accumulation for 25 mins by fluorometric assays
T1 sequence (whole entry): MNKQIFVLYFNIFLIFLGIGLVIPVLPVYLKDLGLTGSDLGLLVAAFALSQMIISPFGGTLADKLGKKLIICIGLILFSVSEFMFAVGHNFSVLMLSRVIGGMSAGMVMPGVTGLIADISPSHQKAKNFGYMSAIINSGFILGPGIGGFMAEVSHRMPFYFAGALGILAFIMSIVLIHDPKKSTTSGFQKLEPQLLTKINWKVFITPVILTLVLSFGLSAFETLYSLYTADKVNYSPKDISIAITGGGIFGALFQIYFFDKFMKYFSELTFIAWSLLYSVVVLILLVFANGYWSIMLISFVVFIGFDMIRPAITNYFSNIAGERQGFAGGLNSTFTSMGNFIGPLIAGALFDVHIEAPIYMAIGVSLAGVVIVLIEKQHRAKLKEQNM

[3] = Toxicity in brine shrimp assessed as mortality at 1 mg/ml; conditions: artemia salina, read-out: Activity
[4] = biological target: T1, Quinolone resistance protein NorA (Staphylococcus aureus); assay: Inhibition of NorA in Staphylococcus aureus SA-1199B assessed as potentiation of ciprofloxacin -mediated antibacterial activity by measuring maximal reduction in ciprofloxacin MIC
[5] = biological target: T1, Quinolone resistance protein NorA (Staphylococcus aureus); assay: Inhibition of NorA in Staphylococcus aureus SA-1199B assessed as potentiation of norfloxacin-mediated antibacterial activity by measuring fold reduction in norfloxacin MIC
[6] = biological target: T1, Quinolone resistance protein NorA (Staphylococcus aureus); assay: Inhibition of NorA in staphylococcus aureus SA-1199B assessed as ethidium bromide accumulation
[7] = biological target: T1, Quinolone resistance protein NorA (Staphylococcus aureus); assay: Inhibition of NorA in Staphylococcus aureus SA-1199B assessed as potentiation of norfloxacin-mediated antibacterial activity by measuring maximal reduction in norfloxacin MIC
[8] = biological target: T1, Quinolone resistance protein NorA (Staphylococcus aureus); assay: Inhibition of NorA in Staphylococcus aureus SA-1199B assessed as potentiation of norfloxacin-mediated antibacterial activity by measuring fold reduction in ciprofloxacin MIC
Staphylococcus aureus [9] = assay: Antibacterial activity against Staphylococcus aureus ATCC 25923; type: functional

SMILES: O=C1NC(=O)/C(=C/c2cccs2)N1
- MIC (Staphylococcus aureus [1]): ≥ 1020 µg/mL

SMILES: CCn1cc(C(=O)O)c(=O)c2cc(F)c(N3CCNCC3)cc21 [NORFLOXACIN]
- MIC (Staphylococcus aureus [1]): 64 µg/mL (≈ 200 µM)

SMILES: O=C1NC(=O)/C(=C/c2ccc(F)cc2)N1
- inhibition [2]: Active
- mortality at 1 mg/ml [3]: 47%
- MEC [4]: 64 µg/mL
- fold change (FC) [5]: 6.4
- MIC (Staphylococcus aureus [1]): 512 µg/mL (≈ 2480 µM)
- inhibition [6]: Active
- MEC [7]: 64 µg/mL
- fold change (FC) [8]: 3.2
- MIC (Staphylococcus aureus [9]): 512 µg/mL (≈ 2480 µM)

SMILES: CN(C)CCCN1c2ccccc2Sc2ccc(Cl)cc21
- inhibition [2]: Active

SMILES: O=C1NC(=S)N/C1=C\c1ccc(F)cc1
- inhibition [2]: Active
- mortality at 1 mg/ml [3]: 90%
- MEC [4]: 64 µg/mL
- fold change (FC) [5]: 4
- MIC (Staphylococcus aureus [1]): 512 µg/mL (≈ 2300 µM)
- inhibition [6]: Active
- MEC [7]: 64 µg/mL
- fold change (FC) [8]: 3.2
- MIC (Staphylococcus aureus [9]): 512 µg/mL (≈ 2300 µM)

Further lines, results first:

- MIC (Staphylococcus aureus [1]): ≥ 1020 µg/mL
SMILES: O=C1NC(=S)N/C1=C\c1cccs1

- MIC (Staphylococcus aureus [1]): ≥ 1020 µg/mL
SMILES: O=C1NC(=O)/C(=C/c2ccccn2)N1

- MIC (Staphylococcus aureus [1]): ≥ 1020 µg/mL
SMILES: O=C1NC(=S)N/C1=C\c1ccccn1

— ChEMBL document CHEMBL4673276, “Inhibition of the NorA efflux pump of S. aureus by (Z)-5-(4-Fluorobenzylidene)-Imidazolidines” (Bioorg Med Chem Lett, 2021)
